Data set [1] concerns the target B-Raf^V600E. The experiment in a line: V600E mutant B-Raf kinase inhibitory assay (B-Raf^V600E mediated MEK phosphorylation).
Experimental: Briefly, 7.5 ng Mouse Full-Length GST-tagged BRAF^V600E (Invitrogen, PV3849) was preincubated at room temperature for 1 h with 1 µL drug and 4 µL assay dilution buffer. The kinase assay was initiated when 5 µL of a solution containing 200 ng recombinant human full length, N-terminal His-tagged MEK1 (Invitrogen), 200 µM ATP, and 30 mM MgCl2 in assay dilution buffer was added. The kinase reaction was allowed to continue at room temperature for 25 min and was then quenched with 5 µL 5x protein denaturing buffer (LDS) solution. Protein was further denatured by heating for 5 min at 70°C. 10 µL of each reaction was loaded into a 15-well, 4–12% precast NuPage gel (Invitrogen) and run at 200 V, and upon completion, the front, which contained excess hot ATP, was cut from the gel and discarded. The gel was then dried and developed onto a phosphor screen.
The test system of data set [2] is WM266.4 human melanoma cell line. The experiment in a line: Anti-proliferation assay (MTT). Format: cell-based. Conditions: WM 266-4, WM266.4 human melanoma cell growth, 24 h. As for the experimental part:
WM266.4 melanoma cells were cultured in DMEM/10% fetal bovine serum, in 5% CO2 water saturated atmosphere at 37°C. Cell suspensions (10000/mL) were prepared and 100 µL/well dispensed into 96-well plates (Costar) giving 1000 cells/well. The plates were returned to the incubator for 24h to allow the cells to reattach. These compounds were initially prepared at 20mM in DMSO. Aliquots (200 µL) were diluted into 20mL culture medium giving 200 µM, and 10 serial dilutions of 3x prepared. Aliquots (100 µL) of each dilution were added to the wells, giving doses ranging from 100 µM to 0.005 µM. After a further incubated at 37°C for 24h in a humidified atmosphere with 5% CO2, the cell viability was assessed by the conventional 3-(4,5-dimethylthiazol-2-yl)-2,5-diphenyltetrazolium bromide (MTT) reduction assay and carried out strictly according to the manufacturer instructions (Sigma). The absorbance at 590nm was recorded using LX300 Epson Diagnostic micro-plate reader. Then GI50 was calculated using SPSS 13.0 software.

Sequence of B-Raf^V600E (P28028 whole entry V585E): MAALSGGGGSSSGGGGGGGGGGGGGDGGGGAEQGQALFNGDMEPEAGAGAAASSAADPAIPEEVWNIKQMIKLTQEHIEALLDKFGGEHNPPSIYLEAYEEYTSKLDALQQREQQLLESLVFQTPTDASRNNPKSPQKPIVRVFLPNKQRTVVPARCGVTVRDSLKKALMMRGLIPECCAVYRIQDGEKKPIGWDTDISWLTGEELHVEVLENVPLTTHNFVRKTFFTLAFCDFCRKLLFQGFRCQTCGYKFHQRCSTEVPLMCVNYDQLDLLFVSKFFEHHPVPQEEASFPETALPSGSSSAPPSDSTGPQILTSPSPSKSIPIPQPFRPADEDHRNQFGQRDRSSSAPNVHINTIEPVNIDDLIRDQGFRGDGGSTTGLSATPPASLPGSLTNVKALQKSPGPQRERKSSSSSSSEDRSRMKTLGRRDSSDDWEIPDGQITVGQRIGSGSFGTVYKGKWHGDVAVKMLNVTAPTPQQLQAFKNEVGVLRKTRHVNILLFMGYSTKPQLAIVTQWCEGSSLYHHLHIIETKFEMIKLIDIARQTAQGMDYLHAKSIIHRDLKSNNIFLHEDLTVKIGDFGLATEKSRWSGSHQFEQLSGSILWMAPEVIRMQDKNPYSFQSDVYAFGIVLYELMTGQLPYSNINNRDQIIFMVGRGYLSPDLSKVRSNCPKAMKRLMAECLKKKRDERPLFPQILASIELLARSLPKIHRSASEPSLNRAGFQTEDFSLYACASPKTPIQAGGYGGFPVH

On to `Oc1ccc(Cl)cc1C1CC(c2ccc(Cl)c(Cl)c2)=NN1c1ccccc1` (centres unmarked) [Compound C12, 4-chloro-2-(3-(3,4-dichlorophenyl)-1-phenyl-4,5-dihydro-1H-pyrazol-5-yl)phenol], for which the melting point fell in the range of 77 to 79 °C. Besides, the concentration for half-maximal inhibition (IC50) in data set [1] is 500 ± 50 nM. In data set [2], this compound returned a GI50 of 1990 ± 130 nM.
The matching figures for `Oc1ccc(Br)cc1C1CC(c2ccc(Br)cc2)=NN1c1ccccc1` (centres unmarked) [Compound C15, 4-bromo-2-(3-(4-bromophenyl)-1-phenyl-4,5-dihydro-1H-pyrazol-5-yl)phenol]: 104 to 106 °C, 1290 ± 100 nM and 2650 ± 190 nM.
With `Oc1ccc(Cl)cc1C1CC(c2ccc(Br)cc2)=NN1c1ccccc1` (centres unmarked) [Compound C9, 2-(3-(4-bromophenyl)-1-phenyl-4,5-dihydro-1H-pyrazol-5-yl)-4-chlorophenol], the melting point is 90 to 93 °C. For the same compound, the IC50 in data set [1] worked out at 1370 ± 130 nM. The same compound showed a GI50 in data set [2] of 2730 ± 210 nM.
The matching figures for `Oc1c(Cl)cc(Cl)cc1C1CC(c2ccc(Cl)cc2)=NN1c1ccccc1` (centres unmarked) [Compound C20, 2,4-dichloro-6-(3-(4-chlorophenyl)-1-phenyl-4,5-dihydro-1H-pyrazol-5-yl)phenol]: 42 to 43 °C, 2140 ± 190 nM and 3590 ± 280 nM.
The like results for `COc1ccc(C2=NN(c3ccccc3)C(c3cc(Cl)cc(Cl)c3O)C2)cc1` (centres unmarked) [Compound C23, 2,4-dichloro-6-(3-(4-methoxyphenyl)-1-phenyl-4,5-dihydro-1H-pyrazol-5-yl)phenol] were, in that order, 33 to 34 °C, 1010 ± 80 nM and 2380 ± 230 nM.
The matching figures for `Oc1c(Cl)cc(Cl)cc1C1CC(c2ccc(Cl)c(Cl)c2)=NN1c1ccccc1` (centres unmarked) [Compound C24, 2,4-dichloro-6-(3-(3,4-dichlorophenyl)-1-phenyl-4,5-dihydro-1H-pyrazol-5-yl)phenol]: 63 to 65 °C, 970 ± 90 nM and 2340 ± 170 nM.
`Oc1ccc(Br)cc1C1CC(c2ccc(Cl)cc2)=NN1c1ccccc1` (centres unmarked) [Compound C14, 4-bromo-2-(3-(4-chlorophenyl)-1-phenyl-4,5-dihydro-1H-pyrazol-5-yl)phenol] displayed a melting point of 88 to 91 °C. This compound also yielded an IC50 in data set [1] of 2200 ± 200 nM. This compound showed a GI50 in data set [2] of 3690 ± 320 nM.
Compound `Cc1ccc(C2=NN(c3ccccc3)C(c3ccccc3O)C2)cc1` (centres unmarked) [Compound C4, 2-(1-phenyl-3-(p-tolyl)-4,5-dihydro-1H-pyrazol-5-yl)phenol] returned a melting point of 32 to 34 °C. In data set [1], this compound displayed an IC50 of 1490 ± 110 nM. Moreover, growth in data set [2] was halved (GI50) at 2850 ± 230 nM.
The matching figures for `Oc1ccc(Cl)cc1C1CC(c2ccc(F)cc2)=NN1c1ccccc1` (centres unmarked) [Compound C7, 4-chloro-2-(3-(4-fluorophenyl)-1-phenyl-4,5-dihydro-1H-pyrazol-5-yl)phenol]: 60 to 63 °C, 2600 ± 230 nM and 4260 ± 360 nM.
In data set [2], `C#Cc1cccc(Nc2ncnc3cc(OCCOC)c(OCCOC)cc23)c1` [Erlotinib, reference compound] yielded a GI50 of 8120 ± 750 nM.
Turning to `Oc1ccc(Cl)cc1C1CC(c2ccc(Cl)cc2)=NN1c1ccccc1` (centres unmarked) [Compound C8, 4-chloro-2-(3-(4-chlorophenyl)-1-phenyl-4,5-dihydro-1H-pyrazol-5-yl)phenol], the melting point lay in the range of 68 to 71 °C. The compound further had an IC50 in data set [1] of 2660 ± 190 nM. In data set [2], this compound had a GI50 of 4390 ± 310 nM.
Take `Oc1ccccc1C1CC(c2ccc(F)cc2)=NN1c1ccccc1` (centres unmarked) [Compound C1, 2-(3-(4-fluorophenyl)-1-phenyl-4,5-dihydro-1H-pyrazol-5-yl)phenol]: the melting point lay in the range of 38 to 41 °C. In addition, in data set [1], half-maximal inhibition (IC50) required 71900 ± 6770 nM. Moreover, the GI50 in data set [2] was more than 50000 nM.
`Oc1ccccc1C1CC(c2ccc(Cl)cc2)=NN1c1ccccc1` (centres unmarked) [Compound C2, 2-(3-(4-chlorophenyl)-1-phenyl-4,5-dihydro-1H-pyrazol-5-yl)phenol] yielded a melting point of 54 to 56 °C. Also, half-maximal inhibition in data set [1] (IC50) was put at 500 ± 40 nM. For the same compound, in data set [2], the GI50 is 2010 ± 130 nM.
The matching figures for `Oc1ccccc1C1CC(c2ccc(Br)cc2)=NN1c1ccccc1` (centres unmarked) [Compound C3, 2-(3-(4-bromophenyl)-1-phenyl-4,5-dihydro-1H-pyrazol-5-yl)phenol]: 65 to 68 °C, 630 ± 60 nM and 2090 ± 180 nM.
Consider `Oc1ccccc1C1CC(c2ccc(Cl)c(Cl)c2)=NN1c1ccccc1` (centres unmarked) [Compound C6, 2-(3-(3,4-dichlorophenyl)-1-phenyl-4,5-dihydro-1H-pyrazol-5-yl)phenol], for which the melting point was in the range of 57 to 59 °C. This compound came in with a 50% inhibitory concentration (IC50) in data set [1] of 150 ± 10 nM. The GI50 in data set [2] came to 1750 ± 120 nM.
The matching figures for `Cc1ccc(C2=NN(c3ccccc3)C(c3cc(Cl)cc(Cl)c3O)C2)cc1` (centres unmarked) [Compound C22, 2,4-dichloro-6-(1-phenyl-3-(p-tolyl)-4,5-dihydro-1H-pyrazol-5-yl)phenol]: 29 to 31 °C, 7370 ± 650 nM and 23900 ± 1990 nM.
The matching figures for `Cc1ccc(C2=NN(c3ccccc3)C(c3cc(Cl)ccc3O)C2)cc1` (centres unmarked) [Compound C10, 4-chloro-2-(1-phenyl-3-(p-tolyl)-4,5-dihydro-1H-pyrazol-5-yl)phenol]: 43 to 46 °C, 3240 ± 280 nM and 5370 ± 490 nM.
The matching figures for `Oc1ccc(Br)cc1C1CC(c2ccc(Cl)c(Cl)c2)=NN1c1ccccc1` (centres unmarked) [Compound C18, 4-bromo-2-(3-(3,4-dichlorophenyl)-1-phenyl-4,5-dihydro-1H-pyrazol-5-yl)phenol]: 95 to 98 °C, 340 ± 20 nM and 1880 ± 150 nM.
Compound `Oc1c(Cl)cc(Cl)cc1C1CC(c2ccc(F)cc2)=NN1c1ccccc1` (centres unmarked) [Compound C19, 2,4-dichloro-6-(3-(4-fluorophenyl)-1-phenyl-4,5-dihydro-1H-pyrazol-5-yl)phenol] yielded a melting point of 37 to 39 °C. Besides, the IC50 in data set [1] is 2260 ± 190 nM. The compound further showed a GI50 in data set [2] of 3760 ± 320 nM.
`COc1ccc(C2=NN(c3ccccc3)C(c3ccccc3O)C2)cc1` (centres unmarked) [Compound C5, 2-(3-(4-methoxyphenyl)-1-phenyl-4,5-dihydro-1H-pyrazol-5-yl)phenol] displayed a melting point of 35 to 37 °C. In addition, the IC50 in data set [1] was determined as 510 ± 50 nM. For the same compound, in data set [2], growth was halved (GI50) at 1980 ± 170 nM.
For the compound `Oc1ccc(Br)cc1C1CC(c2ccc(F)cc2)=NN1c1ccccc1` (centres unmarked) [Compound C13, 4-bromo-2-(3-(4-fluorophenyl)-1-phenyl-4,5-dihydro-1H-pyrazol-5-yl)phenol], the melting point fell in the range of 73 to 76 °C. This compound also yielded an IC50 in data set [1] of 2730 ± 190 nM. The compound also came in with a GI50 in data set [2] of 4450 ± 410 nM.
Regarding `CCCS(=O)(=O)Nc1ccc(F)c(C(=O)c2c[nH]c3ncc(-c4ccc(Cl)cc4)cc23)c1F` [Vemurafenib, reference compound], in data set [2], the GI50 amounted to 210 ± 20 nM.
Compound `Cc1ccc(C2=NN(c3ccccc3)C(c3cc(Br)ccc3O)C2)cc1` (centres unmarked) [Compound C16, 4-bromo-2-(1-phenyl-3-(p-tolyl)-4,5-dihydro-1H-pyrazol-5-yl)phenol] registered a melting point of 59 to 63 °C. This compound displayed an IC50 in data set [1] of 2780 ± 210 nM. Also, in data set [2], the GI50 came to 4550 ± 440 nM.
Compound `Oc1c(Cl)cc(Cl)cc1C1CC(c2ccc(Br)cc2)=NN1c1ccccc1` (centres unmarked) [Compound C21, 2-(3-(4-bromophenyl)-1-phenyl-4,5-dihydro-1H-pyrazol-5-yl)-4,6-dichlorophenol] returned a melting point of 56 to 59 °C. The same compound displayed an IC50 in data set [1] of 3120 ± 260 nM. For the same compound, in data set [2], halving of growth (GI50) required 5130 ± 490 nM.
In turn, `COc1ccc(C2=NN(c3ccccc3)C(c3cc(Cl)ccc3O)C2)cc1` (centres unmarked) [Compound C11, 4-chloro-2-(3-(4-methoxyphenyl)-1-phenyl-4,5-dihydro-1H-pyrazol-5-yl)phenol] had a melting point of 49 to 51 °C. In addition, the IC50 in data set [1] amounted to 1070 ± 80 nM. The compound further registered a GI50 in data set [2] of 2430 ± 160 nM.
As for `COc1ccc(C2=NN(c3ccccc3)C(c3cc(Br)ccc3O)C2)cc1` (centres unmarked) [Compound C17, 4-bromo-2-(3-(4-methoxyphenyl)-1-phenyl-4,5-dihydro-1H-pyrazol-5-yl)phenol], the melting point fell in the range of 65 to 67 °C. Besides, the IC50 in data set [1] was 570 ± 50 nM. It took 2030 ± 180 nM to inhibit growth in data set [2] by half (GI50).

Source of the values: article PMC4020744, “Modification, Biological Evaluation and 3D QSAR Studies of Novel 2-(1,3-Diaryl- 4,5-Dihydro-1H-Pyrazol-5-yl)Phenol Derivatives as Inhibitors of B-Raf Kinase” (PLoS ONE, 2014).
